Results reported in BindingDB's records for doi:10.1021/jm00145a024 (1985).

Assay: Inhibitory binding constant in guinea pig brain homogenate was reported at Opioid receptor delta 1 at a temperature 25 degree Celsius labeled with [3H](D-Ala2-D-Leu5)-enkephalin (0.7 nM)

O=C1c2ccc(O)c3c2C24CCN(CC5CC5)C1[C@]2(O)CCC(=O)[C@@H]4O3 (stereo partly specified) gave a Ki of 281 nM.
